Earlier results in patent US8653059B2, “Heterocyclic compounds as dipeptidyl peptidase-IV inhibitors for the treatment or prevention of diabetes” (Merck Sharp & Dohme Corp., priority 2007, dated 2014).
Each block holds one compound with its values, some of them ahead of it.

Legend:
cardiac allograft = settings: rats; Transplantation 63: 1495-1500 (1997)
hematopoiesis = settings: mouse model of cyclophosphamide-induced neutropenia; WO 99/56753
DPP-4 = target: T1, DPP-4 (Homo sapiens, UniProt P27487)
T1 construct: GRF is rapidly degraded in plasma to GRF[3-44]; host or cells: plasma
T1 sequence (P27487 whole entry, species assumed): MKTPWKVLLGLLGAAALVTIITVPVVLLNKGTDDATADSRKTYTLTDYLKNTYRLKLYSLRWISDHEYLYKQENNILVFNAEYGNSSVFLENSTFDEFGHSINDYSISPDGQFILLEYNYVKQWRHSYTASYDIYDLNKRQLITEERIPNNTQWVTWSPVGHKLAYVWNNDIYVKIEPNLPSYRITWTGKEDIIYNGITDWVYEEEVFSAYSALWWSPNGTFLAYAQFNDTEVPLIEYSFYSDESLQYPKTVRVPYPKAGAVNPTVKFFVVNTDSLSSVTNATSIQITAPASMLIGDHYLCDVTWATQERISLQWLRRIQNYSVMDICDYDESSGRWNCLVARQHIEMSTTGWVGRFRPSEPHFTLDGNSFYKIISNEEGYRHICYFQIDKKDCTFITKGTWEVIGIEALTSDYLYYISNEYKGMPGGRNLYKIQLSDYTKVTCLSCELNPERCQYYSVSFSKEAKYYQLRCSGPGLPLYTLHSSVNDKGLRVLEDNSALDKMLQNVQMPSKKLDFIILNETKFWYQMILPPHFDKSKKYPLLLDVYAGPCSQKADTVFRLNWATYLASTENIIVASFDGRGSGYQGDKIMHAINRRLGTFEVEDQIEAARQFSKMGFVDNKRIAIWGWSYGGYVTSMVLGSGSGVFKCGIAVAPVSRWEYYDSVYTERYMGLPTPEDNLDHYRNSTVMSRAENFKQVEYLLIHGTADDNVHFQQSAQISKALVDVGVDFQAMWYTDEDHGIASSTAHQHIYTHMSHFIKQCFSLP

Compound: CC(C)N1CCC(c2ccccc2)(c2ccccc2)CC1 [Prodipine, Pro-Pro-diphenyl-phosphonate]
- cardiac allograft survival (cardiac allograft): double cardiac allograft survival in rats from day 7 to day 14

Compound: CC(C)[C@H](N)C(=O)N1CCC[C@H]1B(O)O [Val-Boro-Pro]
- hematopoiesis (hematopoiesis): stimulated hematopoiesis

- degradation of GRF in plasma to GRF[3-44] (DPP-4): prevented
Compound: diprotin A
